Earlier results as cited in paper PMC10675597, “Design, Synthesis, and Antisickling Investigation of a Thiazolidine Prodrug of TD-7 That Prolongs the Duration of Action of Antisickling Aromatic Aldehyde” (Pharmaceutics, 2023).

Assays:
[1] = parameters: method as in PMID 34657559, PMID 9490025, PMID 10376886, PMID 11154732; conditions: cited from earlier work
[2] = parameters: method as in PMID 15180869; conditions: cited from earlier work

SMILES | oral bioavailability (in words) [1] | oral bioavailability compared to vanillin (in words) [2] | Cmax ([2]; oral, Sprague-Dawley rats) | Cmax, fold greater than vanillin ([2]; oral, Sprague-Dawley rats) | relative bioavailability, fold higher than vanillin ([2]; oral, Sprague-Dawley rats)
O=Cc1ccc(CO)o1 [5-HMF, 5-hydroxymethylfurfural] | low oral bioavailability |  |  |  | 
CCOC(=O)[C@H]1CSC(c2ccc(O)c(OC)c2)N1 (some centres unmarked) [MX-1520] |  | much better oral bioavailability | 9 µg/mL | 4 fold | 30 fold
CC(C)n1nccc1-c1ncccc1COc1cccc(O)c1C=O [Voxelotor] | satisfactory oral bioavailability |  |  |  | 
COc1cc(C=O)ccc1O [vanillin] | low oral bioavailability |  | 2 µg/mL |  | 
